Measured values taken from article PMC3651882 (Bioconjugate chemistry, 2013).

Columns and labels:
Type in all cases: cell-based, human
[1] = test system: KB-V1 cells; assay: Cellular uptake by flow cytometry; conditions: for Time dependence of cell fluorescence intensity (in words): 5 μM, 1, 2 and 4 h
[2] = test system: KB-V1 cells; assay: Subcellular colocalization, confocal microscopy; conditions: 15 μM, 2 h, Lysotracker Green, Hoechst 33342
[3] = test system: KB-3-1 cells; assay: Cellular uptake by flow cytometry; conditions: 2.5-15 μM, 2 h
[4] = test system: KB-3-1 cells; assay: Cytotoxicity, SRB method; conditions: 50 NM as printed, 2 h incubation
[5] = test system: KB-V1 cells; assay: Cytotoxicity, SRB method; conditions: 50 μM, 2 h incubation
[6] = test system: KB-3-1 cells; assay: Subcellular colocalization, confocal microscopy; conditions: 15 μM, 2 h, Lysotracker Green, Hoechst 33342

| Compound | Time dependence of cell fluorescence intensity (in words) [1] | Subcellular location (in words) [2] | Cellular uptake (in words) [3] | Cytotoxicity (in words) [4] | Cytotoxicity (in words) [5] | Cells killed (cell death) ([5]; then 46 h fresh medium, SRB) [%] | Subcellular location (in words) [6] | Cellular uptake (in words) ([1]; 2.5-15 μM, 2 h) |
| --- | --- | --- | --- | --- | --- | --- | --- | --- |
| O=C(O)c1ccc2c(c1)C(=O)OC21c2ccc(O)cc2Oc2cc(O)ccc21 [5-FAM, 5-carboxyfluorescein] | did not change with time |  |  |  |  |  |  |  |
| COc1cccc2c1C(=O)c1c(O)c3c(c(O)c1C2=O)C[C@@](O)(C(=O)CO)C[C@@H]3O[C@H]1C[C@H](N)[C@H](O)[C@H](C)O1 [Dox, doxorubicin] | did not change with time | dim red fluorescence was observed only on the membrane | very efficient | nearly all the cells were killed | no significant cytotoxicity | 14 | no preference to accumulate in any subcellular organelles | greatly inhibited |
